Measured values as given in patent publication US10870875B2, “Metalloprotein compositions” (Commonwealth Scientific and Industrial Research Organisation, priority 2014, dated 2020).

Experiments:
[1] = target: T1, Apis mellifera AmelF3 (SEQ ID NO: 39) variant Y76A A97H (Apis mellifera, UniProt A0ACM8QI31, A116H/Y95A); assay: Binding of haem to AmelF3 Y76A A97H; conditions: sharp Soret peak at 413 nm
T1 sequence (A0ACM8QI31 20-335 Y95A/A116H): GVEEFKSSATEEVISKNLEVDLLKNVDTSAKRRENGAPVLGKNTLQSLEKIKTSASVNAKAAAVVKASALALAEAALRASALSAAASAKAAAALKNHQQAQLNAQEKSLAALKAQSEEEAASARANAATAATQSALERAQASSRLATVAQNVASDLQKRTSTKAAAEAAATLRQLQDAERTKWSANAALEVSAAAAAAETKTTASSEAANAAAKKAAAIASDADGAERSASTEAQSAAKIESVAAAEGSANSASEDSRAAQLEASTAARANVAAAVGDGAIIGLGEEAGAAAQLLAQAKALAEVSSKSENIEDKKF
Procedure: Site directed mutagenesis of honeybee silk proteins was carried using methods known to the person skilled in the art. For example, to generate AmelF3 Tyr76Ala, the forward primer 5′-[…]-3′ (SEQ ID NO: 80) with the corresponding reverse primer was employed and site directed mutagenesis was carried out using Pfx 50 DNA polymerase from Invitrogen following the Pfx50 manufactures instructions. All AmelF3 mutants were expressed and purified using a similar procedure as the unmodified AmelF3 silk protein. To generate AmelF3 Tyr76His, the forward primer 5′-[…]-3′ (SEQ ID NO: 81) with the corresponding reverse primer was employed. To generate AmelF3 Ala97His, the forward primer 5′-[…]-3′ (SEQ ID NO: 82) was used.
A coordinating His residue was introduced into AmelF3 with Y76A in the a-position of the coiled-coil.

[2] = target: T2, recombinant honeybee (Apis mellifera) silk protein AmelF3, unmodified, SEQ ID NO: 39 (Apis mellifera, UniProt A0ACM8QI31); assay: Binding of macrocycles/chelates to AmelF3 sponges or films (colour retained after washing, UV/Vis); conditions: sponge or film, qualitative
T2 construct: sponges and films
Procedure: Full length, recombinant honeybee silk proteins (AmelF3) without affinity purification tags, were produced by fermentation in Escherichia coli as described in Weisman et al. (2010). Full length, recombinant Weaver Ant/Green Ant (Oecophylla smaragdina) silk proteins (GA1, GA2, GA3, GA4) without affinity purification tags, were produced by fermentation in Escherichia coli following the same procedures as outlined in Weisman et al. (2010).
AmelF3 sponges were prepared as described in example 1. […] The colour change observed with honeybee silk indicates a change in the coordination of the iron metal centre within the haem group, producing a material with a similar coordination to red haemoglobin. The colour was not removed by extensive washing with 70% methanol, 0.1M HCl or 0.1M NaCl.
An embodiment of the composition of the present invention was formed by co-drying a solution of AmelF3 and haem b. Briefly, 2 mg haem b and 20 mg AmelF3 silk sponge was dissolved in 1 mL of HFIP overnight at room temperature. The solution was aliquoted into either a cuvette or 24-well plate and dried at room temperature. The dried film was soaked overnight in 70% methanol to make the film insoluble in water.
Alternatively, haem b was ‘leached’ into a pre-formed film. The AmelF3 material was formed as described in example 1. The silk material was soaked in a solution of haem b (0.5 mg/mL; haem b in excess) in 70% methanol solution for between 1 and 48 hours followed by washing with 70% methanol to remove any unbound haem b and dried at room temperature.
AmelF3 films with different ratios of haem b to AmelF3 were prepared by co-drying haem and AmelF3 HFIP solutions. At low haem loadings (haem:protein molar ratios of 1:1 and 1:2), a sharp Soret peak at 404 nm was observed, indicative of all the haem being coordinated (FIG. 3). As the concentration of haem b relative to the protein was increased, the Soret peak broadened and shifted to lower wavelengths indicating an increase in the amount of uncoordinated haem (FIG. 3).
The ability of sponges generated from recombinant AmelF3 to bind a range of macrocyles was tested by adding a solution of the macrocmacrocycle containing an excess of the macrocycle to be tested to the AmelF3 sponge and observing the colour of the sponge and whether the sponge retained colour after washing. The strength of macrocycle binding was assessed qualitatively by assessing the intensity of the colour retained by the sponge after washing. Strong binding to the sponge refers to the finding that the macrocycle cannot be washed out with aqueous methanol, organic solvents, 0.1 M HCl or 0.1 M NaOH.
Films generated from recombinant honeybee silk protein AmelF3 containing dicyanocobyrinic acid heptamethyl ester were prepared as described in example 3. UV/Vis spectrum were recorded for a film generated from recombinant AmelF3 containing dicyanocobyrinic acid heptamethyl ester and a solution of dicyanocobyrinic acid heptamethyl ester without AmelF3 (FIG. 8).

T2 sequence (A0ACM8QI31 entry or part of it): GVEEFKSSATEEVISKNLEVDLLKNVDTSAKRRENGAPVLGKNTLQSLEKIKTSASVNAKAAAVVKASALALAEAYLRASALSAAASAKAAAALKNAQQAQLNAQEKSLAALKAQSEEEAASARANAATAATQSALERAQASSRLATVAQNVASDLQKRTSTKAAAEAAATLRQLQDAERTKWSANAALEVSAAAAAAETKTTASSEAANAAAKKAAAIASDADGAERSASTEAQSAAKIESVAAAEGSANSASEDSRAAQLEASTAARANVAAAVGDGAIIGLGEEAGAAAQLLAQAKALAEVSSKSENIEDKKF

Question: Which results are given for `C=CC1=C(C)c2cc3[nH]c(cc4nc(cc5[nH]c(cc1n2)c(C)c5CCC(=O)O)C(CCC(=O)O)=C4C)c(C)c3C=C.[Fe]` [haem b]?
Answer: haem coordination (in words) [1]: indicative of histidine coordination; binding to silk protein (in words) [2]: strongly bound
